Measured values as given in US8354398B2, “Substituted isoxazole compounds” (Bristol-Myers Squibb Company, priority 2009, dated 2013).

Columns and labels:
S1P1 [1] = target: T1, S1P1 (Homo sapiens, UniProt P21453); assay: S1P1 Binding Assay (33P-S1P ligand competition, membranes from CHO cells); set-up: expressed in transfected cells; host or cells: CHO cells; details: membranes of CHO cells expressing human S1P1; 0.03 nM 33P-S1P; 60 min room temperature
Outline: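 Membranes from CHO cells expressing human S1P1 (2 μg/well) were incubated with 0.03 nM ^33P-S1P and test compound for 60 min at room temperature. Bound radioactivity was collected on GF/B filters and counted. IC50 is the concentration reducing specific radioligand binding by 50%.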

circulating lymphocytes = assay: Blood Lymphocyte Reduction Assay (BLR) in mice; assay type: in vivo; details: BALB/c mice, oral, vs vehicle group
Experimental: Lewis rats or BALB/c mice were dosed orally with test article (as a solution or suspension in the vehicle) or vehicle alone (polyethylene glycol 300, “PEG300”). Blood was drawn at 4 hr and 24 h by retro-orbital bleeding. Blood lymphocyte counts were determined on an ADVIA® 120 Hematology Analyzer (Siemens Healthcare Diagnostics). The results were measured as a reduction in the percentage of circulating lymphocytes as compared to the vehicle treated group at the 4 hr and 24 hr measurement. The results represent the average results of all animals within each treatment group (n=3-4).
Examples 1 and 2 were tested in the Blood Lymphocyte Reduction assay (BLR) described hereinabove and the results are shown in Table D for rats and Table E for mice.

S1P1 [2] = target: T1, S1P1; assay: Method B: Receptor [35S] GTPγS SPA Binding Assay, membranes from S1P1 transfected CHO cells; assay type: biochemical; set-up: expressed in transfected cells; host or cells: S1P1/CHO cells
Outline: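 CHO-cell membranes (2 μg protein) with test compound, 5 μM GDP, saponin and WGA-PVT SPA beads, pH 7.4; reaction started with 0.2 nM [35S]-GTPγS, 90 min at room temperature. Bound counts expressed as % of 1 μM S1P response, EC50 from four-parameter logistic fit; no curves where Ymax below 50%.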

S1P3 [3] = target: T2, S1P3 (Homo sapiens, UniProt Q99500); assay: Method A: Receptor [35S] GTPγS Binding Assay, membranes from EDG3-Ga15-bla HEK293T cells; assay type: biochemical; set-up: expressed in transfected cells; host or cells: EDG3-Ga15-bla HEK293T cells; details: EDG3-Ga15-bla HEK293T cell membranes
Outline: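 Membranes ([…]) incubated 45 min at room temperature with 3-fold compound dilutions and 0.2 nM final [35S]GTPγS in HEPES pH 7.5 buffer containing 10 μM GDP, MgCl2, EGTA, DTT, BSA and saponin. Bound label collected by filtration and scintillation counting; EC50 taken at 50% of each compound's Ymax.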
Target sequence in this assay (Q99500 whole entry): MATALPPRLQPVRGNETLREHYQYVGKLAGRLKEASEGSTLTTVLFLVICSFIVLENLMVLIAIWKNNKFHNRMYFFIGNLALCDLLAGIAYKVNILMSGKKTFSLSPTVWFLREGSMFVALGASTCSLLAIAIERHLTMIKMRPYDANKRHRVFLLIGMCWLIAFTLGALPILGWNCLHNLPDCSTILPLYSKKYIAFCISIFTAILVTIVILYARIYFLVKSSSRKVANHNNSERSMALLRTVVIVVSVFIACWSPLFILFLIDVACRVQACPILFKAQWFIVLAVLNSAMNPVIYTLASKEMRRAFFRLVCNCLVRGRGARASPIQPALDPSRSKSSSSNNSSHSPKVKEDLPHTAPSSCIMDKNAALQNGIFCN

S1P3 [4] = target: T2, S1P3; assay: Method B: Receptor [35S] GTPγS SPA Binding Assay, membranes from S1P3 transfected CHO cells; assay type: biochemical; set-up: expressed in transfected cells; host or cells: CHO cells; details: S1P3 transfected CHO cell membranes, NC = a satisfactory dose response curve was not obtained
Experimental: Membranes prepared from S1P1 or S1P3 transfected CHO cells (2 μg protein) were incubated in 96-well white plates (CORNING® 3693) with test compounds diluted in DMSO, in 50 μl of reaction mixture containing 7.5 μl WGA-PVT beads (20 mg/ml), and 5 μM GDP, 20 mM HEPES pH 7.4, 100 mM NaCl, 1 mM EDTA, 5 mM MgCl2, 10 μg/ml saponin, 0.1% BSA, and 1 μM leupeptin. The assay was initiated with the addition of 25 μl of 0.2 nM [^35S]-GTPγS (1250 Ci/mmol; NEN) in assay buffer. After 90 min incubation at room temperature, spin the plate at 1000 rpm for 5 min. The bound radionuclides were measured at TOPCOUNT®, expressed as % response relative to S1P (1 μM) activation. Data was analyzed using the four parameter logistic equation in Excel. The four parameters in the equation, Y=A+((B−A)/(1+((EC50/X)^D))), are described as following: A is the Y value (agonist activity) at the bottom plateau; B is the Y value at the top plateau; EC50 is the X value (agonist concentration) when the response is halfway between bottom and top; D is Hill coefficient. Curves were not generated for compounds having Ymax values were below 50%.
Compounds of the present invention and Comparative Compound A were tested in the Receptor [^35S] GTPγS Binding Assays (Method A) and Receptor [35S] In some instances, the value is an average of multiple experiments where N is the number of experiments conducted that provided satisfactory dose response curves. When more than one batch of an example was tested, the value presented is from a batch which allowed a comparison of GTPγS S1P1 and GTPγS S1P3 in which the most number of experiments were performed. Preferably, the same batch was examined in Method A and Method B. Data was not averaged across different batches of an example compound.
Target sequence in this assay (Q99500 whole entry, species assumed): as the sequence (Q99500 whole entry) above

T1 sequence (P21453 whole entry): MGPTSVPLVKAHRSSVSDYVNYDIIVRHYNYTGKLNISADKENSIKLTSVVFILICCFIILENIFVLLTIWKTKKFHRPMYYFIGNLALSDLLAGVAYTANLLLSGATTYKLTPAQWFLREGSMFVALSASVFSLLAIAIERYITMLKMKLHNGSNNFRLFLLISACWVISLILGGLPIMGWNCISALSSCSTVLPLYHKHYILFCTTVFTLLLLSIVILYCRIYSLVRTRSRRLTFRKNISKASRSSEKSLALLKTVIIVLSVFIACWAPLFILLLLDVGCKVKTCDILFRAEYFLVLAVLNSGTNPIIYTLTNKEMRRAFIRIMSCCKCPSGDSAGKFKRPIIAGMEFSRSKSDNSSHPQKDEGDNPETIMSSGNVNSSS

IC50 (S1P1 [1]): 0.091 nM
EC50 (S1P1 [2]; Method B SPA, S1P1 transfected CHO cell membranes, NC = a satisfactory dose response curve was not obtained): 0.048 nM
GTPγS S1P3/S1P1 (Method B) (S1P1 [2]; ratio of GTPγS S1P3 EC50 to GTPγS S1P1 EC50, Method B): 11,000
EC50 (S1P3 [3]): 940 nM
EC50 (S1P3 [4]): 510 nM
SMILES: O=C(O)C1CN(Cc2ccc(-c3noc(-c4onc(-c5ccccc5)c4C(F)(F)F)n3)cc2)C1 [Example 1, 1-(4-(5-(3-Phenyl-4-(trifluoromethyl)isoxazol-5-yl)-1,2,4-oxadiazol-3-yl)benzyl)azetidine-3-carboxylic acid]
% reduction in lymphocytes at 4 hr. (circulating lymphocytes; 0.001 mg/kg): 12%
% reduction in lymphocytes at 24 hr. (circulating lymphocytes; 0.001 mg/kg): 31%
% reduction in lymphocytes at 4 hr. (circulating lymphocytes; 0.01 mg/kg): 32%
% reduction in lymphocytes at 24 hr. (circulating lymphocytes; 0.01 mg/kg): 45%
% reduction in lymphocytes at 4 hr. (circulating lymphocytes; 0.1 mg/kg): 85%
% reduction in lymphocytes at 24 hr. (circulating lymphocytes; 0.1 mg/kg): 89%
% reduction in lymphocytes at 4 hr. (circulating lymphocytes; 1.0 mg/kg): 90%
% reduction in lymphocytes at 24 hr. (circulating lymphocytes; 1.0 mg/kg): 91%
